Experimental data: article PMC6413231, “o-Vanillin Derived Schiff Bases and Their Organotin(IV) Compounds: Synthesis, Structural Characterisation, In-Silico Studies and Cytotoxicity” (International Journal of Molecular Sciences, 2019)

Experiments:
[1] = system: BE2-C (neuroblastoma) cancer cells; experiment: MTT growth inhibition assay, BE2-C; format: cell-based; conditions: 72 h, ± standard error, read-out: Growth Inhibition Concentration, GI50
Protocol: (§1) The Schiff bases and their organotin(IV) compounds were screened for in vitro cytotoxicity against a panel of 12 cancer cell lines: EJ-28 (muscle invasive bladder), RT-112 (minimum-invasive bladder), HT29 (colon), U87 and SJ-G2 (glioblastoma), MCF-7 (breast), A2780 (ovarian), H460 (lung), A431 (skin), DU145 (prostate), BE2-C (neuroblastoma), MIA (pancreatic) and one normal breast cell line (MCF-10A) using the MTT metabolic assay (Figure 6). After 72 h of incubation, a dose-dependent […] effect towards the cancer cell lines was measured at very low micromolar (µM) concentrations of the compounds. The growth inhibition concentration of the Schiff bases and their organotin(IV) compounds required to inhibit 50% cell proliferation relative to the cells that were treated with DMSO (control) are given in Table 2. The stability of these compounds was assessed in DMSO as well as in a mixture of DMSO-H2O. The absorbance obtained from UV-vis spectroscopy analysis was monitored for 72 h, and an unchanged pattern in the spectra was indicative that the compounds were stable in both the solvent systems tested.
(§2) For HT29 (colon), U87 and SJ-G2 (glioblastoma), MCF-7 (breast), A2780 (ovarian), H460 (lung), A431 (skin), Du145 (prostate), BE2-C (neuroblastoma), MIA (pancreas) cell lines and one normal breast cell line, MCF-10A (normal breast), the MTT assays were performed using the following method:
(§3) Stock solutions were prepared as follows and stored at −20 °C: Trial compounds were stored as 10 mM solutions in DMSO. All cell lines were cultured in a humidified atmosphere 5% CO2 at 37 °C. The cancer cell lines were maintained in Dulbecco’s modified Eagle’s medium (DMEM) (Trace Biosciences) supplemented with 10% foetal bovine serum, 10 mM sodium bicarbonate, penicillin (100 IU/mL), streptomycin (100 μg/mL) and glutamine (4 mM). The normal cell line, MCF-10A was cultured in DMEM:F12 (1:1) cell culture media, 5% heat inactivated horse serum, supplemented with penicillin (50 IU/mL), streptomycin (50 μg/mL), 20mM Hepes, L-glutamine (2 mM), epidermal growth factor (20 ng/mL), hydrocortisone (500 ng/mL), cholera toxin (100 ng/mL) and insulin (10 μg/mL).
(§4) Cells in logarithmic growth were transferred to 96-well plates. Cytotoxicity was determined by plating cells in duplicate in 100 μL medium at a density of 2500–4000 cells/well. On day 0 (24 h after plating), when the cells were in logarithmic growth, 100 μL medium, with or without the test agent, was added to each well. After 72 h drug exposure, growth inhibitory effects were evaluated using the MTT (3-[4,5-dimethylthiazol-2-yl]-2,5-diphenyltetrazolium bromide) assay and absorbance read at 540 nm. Percentage growth inhibition was determined at a fixed drug concentration of 25 μM. A value of 100% was indicative of complete cell growth inhibition. Those analogues showing appreciable percentage growth inhibition underwent further dose-response analysis allowing for the calculation of a GI50 value. This value is the drug concentration at which cell growth is 50% inhibited based on the difference between the optical density values on day 0 and those at the end of drug exposure.

[2] = system: MCF-10A (normal breast) cell line; experiment: MTT growth inhibition assay, MCF10A; format: cell-based; conditions: MCF10A normal breast cells, 72 h, ± standard error, read-out: Growth Inhibition Concentration, GI50
Protocol: as §1, §2, §3, §4

[3] = system: A2780 (ovarian) cancer cells; experiment: MTT growth inhibition assay, A2780; format: cell-based; conditions: 72 h, ± standard error, read-out: Growth Inhibition Concentration, GI50
Protocol: as §1, §2, §3, §4

[4] = system: H460 (lung) cancer cells; experiment: MTT growth inhibition assay, H460; format: cell-based; conditions: 72 h, ± standard error, read-out: Growth Inhibition Concentration, GI50
Protocol: as §1, §2, §3, §4

[5] = system: MIA (pancreatic) cancer cells; experiment: MTT growth inhibition assay, MIA; format: cell-based; conditions: 72 h, ± standard error, read-out: Growth Inhibition Concentration, GI50
Protocol: as §1, §2, §3, §4

[6] = system: calf thymus DNA (CT-DNA); experiment: CT-DNA binding by UV-vis absorption titration; conditions: for Bathochromism Shift (nm) / Hypochromism, (%): CT-DNA, UV-vis absorption titration; for Gibbs Free Energy: interaction with CT-DNA
Protocol: Both theoretical and experimental DNA binding of the synthesised organotin(IV) compounds with DNA were investigated. The interaction of organotin(IV) compounds with CT-DNA was elucidated via UV-visible absorption spectroscopy. […] The absorption spectra of diphenyltin(IV) compounds at a constant concentration (50 μM) in the absence and the presence of different concentrations of CT-DNA are shown in Figure 8. Upon increasing concentrations of CT-DNA, hypochromism and bathochromism occurred at around 350–377 nm indicating strong π–π stacking interactions between the aromatic chromophore of the organotin(IV) compounds and the nitrogeneous pair of the DNA strand [11, 70]. The same hypochromism and bathochromism shifts were also observed in other transitions. In order to compare the binding strength of the organotin(IV) compounds to CT-DNA, the intrinsic binding constants (Kb) were quantitatively determined and are presented in Table 3.
DNA binding experiments were carried out at 25°C. DNA concentration per nucleotide was determined using the molar absorption coefficient (6600 M^−1 cm^−1) at 260 nm. […] Absorption titration experiments were performed maintaining the concentration of the organotin(IV) compounds solutions at 50 µM and gradually increasing the concentration of CT-DNA. The organotin(IV) compounds were dissolved in DMSO and diluted with Tris-HCI buffer at room temperature (25 °C). The solutions were scanned over 230–600 nm. Absorbance values were recorded 10 min after the addition of DNA solution. The binding constant, Kb was determined using the equation: [DNA]/(εa−εf)=[DNA]/(εb−εf)+1/Kb(εb−εf) where [DNA] is the concentration of DNA in base pairs, εa corresponds to the apparent molar extinction coefficient Aabs/[M], εf corresponds to the extinction coefficient for the free organotin [M] and εb corresponds to the extinction coefficient for the fully bound organotin compound.

Diphenyltin(IV) [Ph2Sn(S4MoVa), Diphenyltin(IV) [S-4-Methybenzyl-β-N-(2-hydroxy-3-methoxybenzylmethylene) dithiocarbazate]]
GI50 [1]: 530 ± 10 nM
GI50 [2]: 1100 ± 370 nM
GI50 [3]: 350 ± 70 nM
GI50 [4]: 1900 ± 230 nM
GI50 [5]: 390 ± 30 nM
Bathochromism Shift (nm) [6]: 4 nm
Hypochromism, (%) [6]: 28.25%
Gibbs Free Energy [6]: -7.41 kcal/mol

Diphenyltin(IV) [Ph2Sn(S2MoVa), Diphenyltin(IV) [S-2-Methybenzyl-β-N-(2-hydroxy-3-methoxybenzylmethylene) dithiocarbazate]]
GI50 [1]: 470 ± 50 nM
GI50 [2]: 1200 ± 300 nM
GI50 [3]: 230 ± 10 nM
GI50 [4]: 2800 nM
GI50 [5]: 340 ± 20 nM
Bathochromism Shift (nm) [6]: 6 nm
Hypochromism, (%) [6]: 41.06%
Gibbs Free Energy [6]: -7.91 kcal/mol
